Data reported in US20200315540A1, “TREATMENT OF A DISEASE OF THE GASTROINTESTINAL TRACT WITH AN IL-1 INHIBITOR” (Progenity, Inc., priority 2016, published 2020).

Experiment: Tissue, plasma and GI content pharmacokinetics of tacrolimus, oral vs intra-cecal ingestible device delivery in swine
Type: in vivo
Details: intra-cecally vs orally administered, 12 hours post-dose, FIG. 76
Experimental: No further randomization procedure was employed.
Animals in Group 1 received an ingestible device containing 0.8 mL of vehicle solution (80% alcohol, 20% HCO-60). Animals in Group 2 received orally […] liquid formulation of tacrolimus at 4 mg/0.8 mL per animal (Prograf: 5 mg/mL). Animals in Group 3 received intra-cecally an ingestible device containing tacrolimus at 1 mg in 0.8 mL per ingestible device. Animals in Group 4 received intra-cecally an ingestible device containing tacrolimus at 2 mg in 0.8 mL per ingestible device. Animals in Group 5 received intra-cecally an ingestible device containing tacrolimus at 4 mg in 0.8 mL per ingestible device. […]
Approximately 200˜400 mg of rectal content were collected, if available, with a fecal swab (Copan Diagnostics Nylon Flocked Dry Swabs, 502CS01). The fecal swab was pre-weighed and weighed after collection in the collection tube (Sterile Tube and Cap No Media, PFPM913S), and the sample weight was recorded. […]
For tissue necropsy, small intestine fluid and cecal fluid were collected separately from all the animals into two separate square plastic bottles, and stored at −20° C. The length and diameter of the cecum and the colon was measured from one animal in each group and recorded for reference. […] All samples were weighed, and the tissue sample weights were recorded. […]

## C=CC[C@@H]1/C=C(\C)C[C@H](C)C[C@H](OC)[C@H]2O[C@@](O)(C(=O)C(=O)N3CCCC[C@H]3C(=O)O[C@H](/C(C)=C/[C@@H]3CC[C@@H](O)[C@H](OC)C3)[C@H](C)[C@@H](O)CC1=O)[C@H](C)C[C@@H]2OC [tacrolimus]
  mean concentration in the cecum tissue and the proximate colon tissue: higher
